Measurements as given in patent US12606543B2, “Indole derivatives as serotonergic agents useful for the treatment of disorders related thereto” (priority 2023, dated 2026).
Read-outs that look alike come from different tables or passages of the source.

Tests used:
human 5-HT2C receptor = molecular target: T1, human 5-HT2C receptor (Homo sapiens, UniProt P28335); assay: cell-based; details: calcium mobilization FLIPR
T1 construct: expressed in transfected cells; host or cells: U2OS
T1 sequence (P28335 33-458): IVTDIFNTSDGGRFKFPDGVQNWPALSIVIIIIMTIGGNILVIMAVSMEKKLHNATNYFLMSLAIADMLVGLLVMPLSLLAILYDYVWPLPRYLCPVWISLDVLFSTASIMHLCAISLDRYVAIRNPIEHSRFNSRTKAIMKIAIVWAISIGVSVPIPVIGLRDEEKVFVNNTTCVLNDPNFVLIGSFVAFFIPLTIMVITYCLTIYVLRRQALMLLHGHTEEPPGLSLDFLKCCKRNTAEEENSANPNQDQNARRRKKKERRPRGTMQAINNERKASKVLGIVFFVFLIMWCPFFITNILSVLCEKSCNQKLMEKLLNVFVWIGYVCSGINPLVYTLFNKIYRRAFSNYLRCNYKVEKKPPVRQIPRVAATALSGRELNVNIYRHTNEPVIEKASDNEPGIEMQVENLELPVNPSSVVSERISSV

human 5-HT2B receptor = human 5-HT2B receptor (Homo sapiens, UniProt P41595); assay: Human 5-HT2B radioligand binding assay ([3H]-LSD); details: [3H]-LSD displacement, cell membrane, 37° C., 90 min
Sequence of human 5-HT2B receptor (P41595 whole entry): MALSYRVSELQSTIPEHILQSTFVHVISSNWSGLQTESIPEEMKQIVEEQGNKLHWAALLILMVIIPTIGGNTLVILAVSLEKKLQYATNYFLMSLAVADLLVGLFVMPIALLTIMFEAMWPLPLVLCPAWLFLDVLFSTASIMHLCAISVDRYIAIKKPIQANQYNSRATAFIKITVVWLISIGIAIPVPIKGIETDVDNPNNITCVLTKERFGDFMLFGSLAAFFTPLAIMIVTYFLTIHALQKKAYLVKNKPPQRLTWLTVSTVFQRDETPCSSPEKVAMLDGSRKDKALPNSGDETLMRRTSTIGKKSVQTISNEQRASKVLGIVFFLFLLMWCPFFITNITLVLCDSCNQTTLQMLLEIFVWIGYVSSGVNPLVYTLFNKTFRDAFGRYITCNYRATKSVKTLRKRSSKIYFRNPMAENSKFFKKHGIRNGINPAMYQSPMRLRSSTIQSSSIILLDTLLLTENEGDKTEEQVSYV

[1] = Pharmacokinetic studies in rat (i.v.); type: in vivo; details: male, Sprague-Dawley, plasma; for concentration at 0.25 h / concentration at 1 h / concentration at 4 h: intravenous, dose per Dose column (1.32-2.09 mg/kg); for half-life / AUC(0-t): iv, rat plasma, i.v., dose per Dose column; for half-life: estimated from 2 points only
In short: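 Male Sprague-Dawley rats dosed by tail-vein i.v. injection in 5% Tween-80 in saline; saphenous blood drawn at […] and 4 h. Plasma levels by LC-MS/MS; t1/2 and AUC0-tlast from non-compartmental analysis (linear up/log down).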

[2] = Plasma protein binding by equilibrium dialysis, dog; type: in vitro ADME; details: dog plasma, 6 hours
Experimental: The final concentration of compound was 1 μM. The final concentration of DMSO was 0.5%. Ketoconazole was used as positive control in the assay.
The assay was performed in duplicate.
All calculations were carried out using Microsoft Excel. […] The percentages of bound compound were calculated as follows: […]
Ketoconazole was used as positive control in the assay.

[3] = first animal (R07/R04/R01/R10), read-out: Plasma concentration
[4] = mean of 3 rats, read-out: Plasma concentration, Mean ± SD
[5] = second animal (R08/R05/R02/R11), read-out: Plasma concentration
[6] = third animal (R09/R06/R03/R12), read-out: Plasma concentration

## COCCN1CCC[C@@H]1Cc1c[nH]c2ccc(OC)cc12 [(R) I-98, (R)-5-Methoxy-3-((1-(2-methoxyethyl)pyrrolidin-2-yl)methyl)-1H-indole]
Human 5-HT2C receptor; U2OS cells, relative to maximum response of serotonin
  Emax (% of serotonin): 95.23 % of serotonin
Human 5-HT2C receptor; stably transfected U2OS cells
  EC50: 6.51 nM
Human 5-HT2B receptor; read-out: 5-HT2B, IC50
  IC50: 45.6 nM
Human 5-HT2B receptor; read-out: 5-HT2B, Ki
  Ki: 23.6 nM
[1]; [3]
  concentration at 0.25 h: 411 ng/mL
  concentration at 1 h: 128 ng/mL
  concentration at 4 h: 2.48 ng/mL
[1]; [4]
  concentration at 0.25 h: 446 ± 34.1 ng/mL
  concentration at 1 h: 113 ± 14.2 ng/mL
  concentration at 4 h: 2.32 ± 0.139 ng/mL
[1]; [5]
  concentration at 0.25 h: 479 ng/mL
  concentration at 1 h: 110 ng/mL
  concentration at 4 h: 2.25 ng/mL
[1]; [6]
  concentration at 0.25 h: 449 ng/mL
  concentration at 1 h: 100 ng/mL
  concentration at 4 h: 2.23 ng/mL
[1]; first animal (R07/R04/R01/R10), read-out: Apparent t1/2 (converted)
  half-life: 30.8 min
[1]; mean of 3 rats, read-out: Apparent t1/2, Mean ± SD (converted)
  half-life: 30.4 ± 0.473 min
[1]; second animal (R08/R05/R02/R11), read-out: Apparent t1/2 (converted)
  half-life: 29.9 min
[1]; third animal (R09/R06/R03/R12), read-out: Apparent t1/2 (converted)
  half-life: 30.3 min
[1]; first animal (R07/R04/R01/R10), read-out: AUC0-tlast
  AUC(0-t): 403 ng·h/mL
[1]; mean of 3 rats, read-out: AUC0-tlast, Mean ± SD
  AUC(0-t): 409 ± 15.1 ng·h/mL
[1]; second animal (R08/R05/R02/R11), read-out: AUC0-tlast
  AUC(0-t): 426 ng·h/mL
[1]; third animal (R09/R06/R03/R12), read-out: AUC0-tlast
  AUC(0-t): 397 ng·h/mL
[2]; Beagle, dog, equilibrium dialysis, 37° C.
  recovery at 6 h, 1 µM: 104%
[2]; Beagle, equilibrium dialysis, 37° C., read-out: % Bound (converted)
  fraction unbound at 6 h, 1 μM: 0.157
[2]
  % Remaining @ 6 hours: 110.92%
